The target in assay [1] is T1, HIV-1 RT wild-type (WT) (Human immunodeficiency virus type 1 group M subtype B, UniProt P03366).
T1 construct: an HIV RT clone pKRT2 containing only the RT p66 gene regulated by the lac operon/trc promoter; made in house; host or cells: E. coli JM109, vector pKK233-2
The assay is described as follows: Reverse transcriptase (RT) assay, wild-type enzyme. In kind it is biochemical. The text has this:
(§1) Among the enzymes for which Human Immunodeficiency Virus (HIV-1) encodes is a reverse transcriptase (1), so-named because it transcribes a DNA copy from an RNA template. This activity can be quantitatively measured in a cell-free enzyme assay and is based upon the observation that reverse transcriptase is able to use a synthetic template poly r(C) primed with a biotinylated oligo d(G) to transcribe a radio-labelled DNA strand utilising 3H-dGTP as a substrate. The assay described below utilises the wild-type enzyme (which is the predominant form of the enzyme observed in patients infected with HIV-1) and can also be used with mutant RT enzymes (for example, Y181C, prepared by site-directed mutagenesis in which the tyrosine residue at codon 181 has been replaced by a cysteine residue) in analogous assay conditions. This assay allows compounds to be evaluated for their effectiveness at inhibiting the mutant enzymes.
(§2) Some HIV-1 IIIB clone BH10 RT mutants were provided by Dr. C.-K. Shih (Boehringer Ingelheim Pharmaceutials Inc., U.S.A.) in the vector pKK233-2 (Pharmacia). Briefly an HIV RT clone pKRT2 containing only the RT p66 gene regulated by the lac operon/trc promoter was obtained from Dr. W. Summers (Yale University) (2). A variety of specific amino acid substitutions were introduced into the wild-type RT gene by site-directed mutagenesis. RT clones were subcloned into the pKK233-2 bacterial expression vector. Clones provided included wild-type, Val106Ala, Tyr181Cys, Tyr188Cys, Tyr188Leu, Gly190Ala and Pro236Leu. Others were made in-house by site-directed mutagenesis of the pKK233-2 RT clones including Lys103Asn, Lys103Asn/Tyr181Cys, Lys103Asn/Leu100Ile, Lys103Asn/Pro225His, and Lys103Asn/Val108Ile.
(§3) Purification of recombinant reverse transcriptase was performed using a combination of methods previously described (3). A single colony from a fresh plate of transformed JM109 cells was used to initiate growth of a pre-culture grown o/n at 37° C. Two liters of growth medium were inoculated with this pre-culture. At OD600˜1.5 (5-6 h at 37° C.), RT gene expression was induced with IPTG (1 mM final), and the fermentation was continued for a few more hours at 37° C. After centrifugation, supernatants were discarded while cell pellets were pooled and stored at −80° C. until purification. Cells were thawed at 4° C. overnight and suspended in lysis buffer (MES 50 mM pH 6, EDTA 1 mM, 10% v/v glyerol, 0.02% w/v OBG, 0.02% w/v sodium azide). Lysozyme was added and the mixture was incubated on ice for 40 minutes. After homogenization using a bounce in presence of lysozyme and sonication, the cells were centrifuged for 30 minutes. Supernatant (S1) was saved and stored at 4° C. The centrifuged pellet was resuspended in extraction buffer (MES 50 mM pH 6, KPO4 50 mM pH 6, KCl 100 mM, 10% v/v glycerol, 0.02% w/v OBG, 0.02% w/v sodium axide) and stirred for 30 minutes at 4° C. This second mixture was centrifuged again and the supernatant (S2) was saved. The above procedure was repeated 2 more times saving supernatants S3 and S4 and one last extraction was performed overnight (S5). Polymin P (0.005% final) was added to the combined supernatants to remove nucleic acids. This solution was stirred for 75 minutes at 4° C. and centrifuged for 1 h. The supernatant (SS1) was precipitated on ice with 20% w/v ammonium sulfate and stirred for 1 h at 4° C. The mixture was then centrifuged and the resulting supernatant (SS2) was precipitated with additional 40% w/v ammonium sulfate (60% total), stirred for 1 h and centrifuged again. The final pellet (P1) was stored overnight at 4° C. before undergoing purification the following day. All steps of the purification were performed at 4° C. unless otherwise stated.
(§4) Pellet (P1) was resuspended into MES 50 mM pH 6, KPO4 10 mM pH 6, KCl 100 mM, 10% v/v glycerol, 0.02% w/v OBG, 0.02% w/v sodium azide. The suspension was dialysis against the same buffer overnight using 12-14 kD MWCO dialysis tubing. […]

Assay [2] addresses T2, HIV-1 RT V106A (Human immunodeficiency virus type 1 group M subtype B, UniProt P03366, V705A).
T2 construct: an HIV RT clone pKRT2 containing only the RT p66 gene regulated by the lac operon/trc promoter; made in house; host or cells: E. coli JM109, vector pKK233-2
The experiment in a line: Reverse transcriptase (RT) assay, V106A mutant. In kind it is biochemical.
Source text: as §1, §2, §3, §4

In assay [3] the target is T3, HIV-1 RT Y188L (Human immunodeficiency virus type 1 group M subtype B, UniProt P03366, Y787L).
T3 construct: an HIV RT clone pKRT2 containing only the RT p66 gene regulated by the lac operon/trc promoter; made in house; host or cells: E. coli JM109, vector pKK233-2
The assay is described as follows: Reverse transcriptase (RT) assay, Y188L mutant. In kind it is biochemical.
Source text: as §1, §2, §3, §4

Assay [4] concerns the target T4, HIV-1 RT G190A (Human immunodeficiency virus type 1 group M subtype B, UniProt P03366, G789A).
T4 construct: an HIV RT clone pKRT2 containing only the RT p66 gene regulated by the lac operon/trc promoter; made in house; host or cells: E. coli JM109, vector pKK233-2
The experiment in a line: Reverse transcriptase (RT) assay, G190A mutant. In kind it is biochemical.
Source text: as §1, §2, §3, §4

In assay [5] the target is T5, HIV-1 RT K103N/Y181C (Human immunodeficiency virus type 1 group M subtype B, UniProt P03366, K702N/Y780C).
T5 construct: an HIV RT clone pKRT2 containing only the RT p66 gene regulated by the lac operon/trc promoter; made in house; host or cells: E. coli JM109, vector pKK233-2
The assay is described as follows: Reverse transcriptase (RT) assay, K103N/Y181C mutant. It is filed as biochemical.
Source text: as §1, §2, §3, §4

Assay [6] deals with T6, HIV-1 RT K103N/L100I (Human immunodeficiency virus type 1 group M subtype B, UniProt P03366, K702N/L699I).
T6 construct: an HIV RT clone pKRT2 containing only the RT p66 gene regulated by the lac operon/trc promoter; made in house; host or cells: E. coli JM109, vector pKK233-2
The assay is described as follows: Reverse transcriptase (RT) assay, K103N/L100I mutant. It is filed as biochemical.
Source text: as §1, §2, §3, §4

For assay [7], the target named is T7, HIV-1 RT K103N (Human immunodeficiency virus type 1 group M subtype B, UniProt P03366, K702N).
T7 construct: an HIV RT clone pKRT2 containing only the RT p66 gene regulated by the lac operon/trc promoter; made in house; host or cells: E. coli JM109, vector pKK233-2
The assay is described as follows: Reverse transcriptase (RT) assay, K103N mutant. In kind it is biochemical.
Source text: as §1, §2, §3, §4

In assay [8] the target is T8, HIV-1 RT Y181C (Human immunodeficiency virus type 1 group M subtype B, UniProt P03366, Y780C).
T8 construct: an HIV RT clone pKRT2 containing only the RT p66 gene regulated by the lac operon/trc promoter; made in house; host or cells: E. coli JM109, vector pKK233-2
The experiment in a line: Reverse transcriptase (RT) assay, Y181C mutant. In kind it is biochemical.
Source text: as §1, §2, §3, §4

Assay [9] deals with T9, HIV-1 RT K103N/P225H (Human immunodeficiency virus type 1 group M subtype B, UniProt P03366, K702N/P824H).
T9 construct: an HIV RT clone pKRT2 containing only the RT p66 gene regulated by the lac operon/trc promoter; made in house; host or cells: E. coli JM109, vector pKK233-2
The experiment in a line: Reverse transcriptase (RT) assay, K103N/P225H mutant. In kind it is biochemical.
Source text: as §1, §2, §3, §4

In assay [10] the target is T10, HIV-1 RT K103N/V108I (Human immunodeficiency virus type 1 group M subtype B, UniProt P03366, K702N/V707I).
T10 construct: an HIV RT clone pKRT2 containing only the RT p66 gene regulated by the lac operon/trc promoter; made in house; host or cells: E. coli JM109, vector pKK233-2
The assay is described as follows: Reverse transcriptase (RT) assay, K103N/V108I mutant. It is filed as biochemical.
Source text: as §1, §2, §3, §4

In assay [11] the test system is HIV coding for wild-type reverse transcriptase (WT RT). The experiment in a line: ELISA (p24) assay of HIV replication in C8166 cell culture, wild-type RT virus. It is filed as cell-based, HIV-1. As to conditions: Human immunodeficiency virus 1, C8166, 72 h, read-out: EC50 WT RT. As for the experimental part:
Compounds of the invention were tested for their ability to inhibit HIV replication in cell culture in a 96-well plate assay. Complete RPMI 1640, consisting of RPMI 1640+10% fetal bovine serum, 10 μg/ml gentamycin and 10 μM β-mercaptoethanol was used for dilution of the compound as well as cell growth medium. The T lymphocyte cell line C8166 was infected at a multiplicity of infection of 0.001 with viruses coding for wild-type and mutant reverse transcriptase. Cells were then incubated for three days in the presence of serial dilutions of the compounds of the invention. The supernatant was pooled from eight replica wells and the concentration of extracellular p24 was determined using a commercially available HIV-1 p24 antigen assay kit (Beckman-Coulter®). The level of inhibition (% inhibition) was calculated with the following equation: [formula]

The target of assay [12] is T11, HIV-1 RT Y188C (Human immunodeficiency virus type 1 group M subtype B, UniProt P03366, Y787C).
T11 construct: an HIV RT clone pKRT2 containing only the RT p66 gene regulated by the lac operon/trc promoter; made in house; host or cells: E. coli JM109, vector pKK233-2
The assay is described as follows: Reverse transcriptase (RT) assay, Y188C mutant. It is filed as biochemical.
Source text: as §1, §2, §3, §4

In the case of `CCN1c2ncc(CCOc3ccnc4ccccc34)cc2C(=O)N(C)c2cccnc21` [compound 24, 5,11-Dihydro-11-ethyl-5-methyl-8-{2-(4-quinolinyloxy)ethyl}-6H-dipyrido[3,2-b:2′,3′-e][1,4]diazepin-6-one], the IC50 is 5.6 nM in [1]; 344 nM in assay [2]; 627 nM in assay [3]; 25 nM in assay [4]; 70 nM in assay [5]; 169 nM in assay [6].
As to `CCN1c2ncc(CCOc3cc[n+]([O-])c4ccccc34)cc2C(=O)Nc2c(C)cc(Cl)nc21` [compound 14, 2-Chloro-5,11-dihydro-11-ethyl-4-methyl-8-{2-{(1-oxido-4-quinolinyl)-oxy}ethyl}-6H-dipyrido[3,2-b:2′,3′-e][1,4]diazepin-6-one], the IC50 came out at 15 nM in [1]; 19 nM in assay [7]; 28 nM in [8]; 77 nM in assay [2]; 2300 nM in [3]; 61 nM in assay [5]. The IC50 amounted to 30 nM in [9], 59 nM in assay [10] and 24 nM in assay [6]. Besides, in [11], the half-maximal effective concentration (EC50) was 0.67 nM.
Consider `CCN1c2ncc(CCOc3cccc4ncccc34)cc2C(=O)Nc2c(C)cc(Cl)nc21` [compound 25, 2-Chloro-5,11-dihydro-11-ethyl-4-methyl-8-{2-(5-quinolinyloxy)ethyl}-6H-dipyrido[3,2-b:2′,3′-e][1,4]diazepin-6-one], for which the IC50 is 8 nM in [1]; 19 nM in assay [7]; 17 nM in assay [8]; 84 nM in assay [2]; 2540 nM in [3]; 64 nM in assay [5]. Besides, the figures for the IC50 in assay [9], in [10] and in [6] were 23 nM, 38 nM and 28 nM, respectively. Further, the EC50 in assay [11] was found to be 2.2 nM.
`Cc1ccnc2c1NC(=O)c1cc(CCOc3ccnc4ccccc34)cnc1N2C1CC1` [compound 3, 11-(Cyclopropyl)-5,11-dihydro-4-methyl-8-{2-(4-quinolinyloxy)ethyl}-6H-dipyrido[3,2-b:2′,3′-e][1,4]diazepin-6-one]: the IC50 was determined as 16.5 nM in [1]; 45 nM in assay [7]; 73 nM in [8]; 79 nM in [2]; 3240 nM in assay [3]; 612 nM in [5]. Moreover, the figures for the IC50 in assay [9], in [10] and in assay [6] were 56 nM, 47 nM and 124 nM, respectively. Further, the EC50 in [11] was determined as 1.3 nM.
Take `CCN1C(=O)c2cc(CCOc3ccnc4ccccc34)cnc2N(CC)c2ncccc21` [compound 26, 5,11-Dihydro-5,11-diethyl-8-{2-(4-quinolinyloxy)ethyl}-6H-dipyrido[3,2-b:2′,3′-e][1,4]diazepin-6-one]: the IC50 in assay [1] was 8.9 nM; in assay [7], 40 nM; in [8], 51 nM; in assay [2], 1750 nM; in assay [3], 5200 nM; in assay [5], 200 nM. Also, the results for the IC50 in assay [9], in assay [12] and in assay [10] were 85 nM, 147 nM and 443 nM, respectively. Besides, in [11], the EC50 worked out at 2.2 nM.
Take `CCN1c2ncc(CCOc3ccnc4ccccc34)cc2C(=O)Nc2c(C)ccnc21` [compound 8, 5,11-Dihydro-11-ethyl-4-methyl-8-{2-(4-quinolinyloxy)ethyl}-6H-dipyrido[3,2-b:2′,3′-e][1,4]diazepin-6-one]: the IC50 in assay [1] was 10 nM; in [7], 37 nM; in [8] it was 43 nM; in assay [2] it was 190 nM; in assay [3], 7510 nM; in assay [5], 301 nM. Further, the IC50 in assay [9] turned out to be 67 nM; in [10], 63 nM; in assay [6], 135 nM. The EC50 in [11] came out at 0.93 nM.

The record behind these values is patent US20020028807A1, “Non-nucleoside reverse transcriptase inhibitors” (priority 2000, published 2002).
